SMILES strings stand for the structures. Like-named read-outs stand apart in the source and are kept apart here.

On the set-up of data set [1]: method as in earlier work. As to conditions: cited from earlier work; for AUC0–t / AUC0–∞ / Cmax / Tmax / t1/2: rat.
Data set [2] in a line: In vitro physiological stability and formation of parent compound in rat plasma. In kind it is in vitro ADME. As to conditions: 37 °C, up to 3 h. On the procedure: Analysis was performed by using a Waters Alliance HPLC system (2695 pump, and 2489 PDA detector) with the following chromatographic parameters: wavelength, 278 nm; injection volume, 20 μL; run time, 20 min. The chromatographic separation was performed on an Phecda C18 (4.6 mm × 250 mm, 5 μm) column with a gradient elution of methanol and deionized water. Flow rate was 1.0 mL/min at 30 °C.
Rat plasma was harvested from in-house rats. Fresh blood was collected from the male rat using a retro-orbital bleeding method in a tube containing heparin (100 IU/mL blood). After the collection of blood, plasma was separated from the blood by centrifugation at 5,000 rpm for 10 min. The supernatant plasma was separated and utilized for the further experiment.
The test compound in aqueous solution 30 mM (20 μL) was dissolved in rat plasma (980 μL). Immediately after addition (0 min), aliquots (100 μL) were removed and added to ice cold dissolvent (ethanol-ethyl acetate = 1:4 v/v, 1 mL) and mixed well by vortexing for 2 min. The mixture was centrifuged at 12,000 rpm for 10 min, and the supernatant was diluted with methanol and analyzed by HPLC. After 0 min, the remaining sample was incubated at 37 °C for 1, 2, and 3 h. […]

As to `Cc1nc(CO)c(C)nc1CO` [1a, Liguzinediol], in data set [1] (LZDO 10 mg·kg^−1 i.g.), the “AUC0–t” value is 16740 ± 8900 ng·h/mL, the “AUC0–∞” value was 17080 ± 8990 ng·h/mL, the Cmax was 8580 ± 2660 ng/mL and the Tmax was 0.29 ± 0.10 h. Besides, in data set [1] (LZDO 10 mg·kg^−1 i.g.), the t1/2 was 2.21 ± 1.11 h. Besides, in data set [1] (LZDO 20 mg·kg^−1 i.g.), the “AUC0–t” value is 34840 ± 24640 ng·h/mL, the “AUC0–∞” value is 35930 ± 24080 ng·h/mL, the Cmax was 17020 ± 5500 ng/mL and the Tmax is on record as 0.29 ± 0.10 h. In addition, the t1/2 in data set [1] (LZDO 20 mg·kg^−1 i.g.) is 2.57 ± 2.14 h. In addition, in data set [1] (LZDO 50 mg·kg^−1 i.g.), the “AUC0–t” value was 92850 ± 64100 ng·h/mL, the “AUC0–∞” value is 94820 ± 66880 ng·h/mL, the Cmax was 49330 ± 10500 ng/mL and the Tmax is reported as 0.29 ± 0.10 h. Also, in data set [1] (LZDO 50 mg·kg^−1 i.g.), the t1/2 is listed as 1.78 ± 0.57 h. Further, the half-life result in data set [1] (after intragastric administration, rats) is on record as “about 2 h”. In addition, the metabolic stability entry in data set [2] was “fairly stable”.
